According to publication PMC13185819, “De Novo Multi‐Mechanism Antimicrobial Peptide Design via Multimodal Deep Learning” (Advanced Science, 2026):
Values after ≈ are worked out from the molar mass of the structure shown. Residues, ends and D or L forms follow the SMILES beside them.

Key:
Format in all cases: cell-based
E. faecium 1042 = test system: E. faecium 1042
Method: (§1) Standard strains included S. aureus ATCC33592, S. aureus CICC25138, and Salmonella enterica ATCC14028, which were purchased from the China Center of Industrial Culture Collection (CICC). Standard strains including E.coli CMCC44102, Salmonella enterica CMCC50071, and S. aureus CMCC26003 were purchased from the National Center for Medical Culture Collections (CMCC). […] All experiments using the above strains were carried out in a BSL‐2 laboratory. The clinical laboratory of Qilu Hospital detected bacterial resistance to various antibiotics. All strains were streaked on Nutrient Broth (NB) agar medium and incubated overnight at 37°C.
(§2) The antimicrobial activity of the peptides was examined in sterile 96‐well plates using the broth microdilution according to the CLSI standard. The colonies were suspended in saline solution, the turbidity was adjusted to McFarland 0.5 to reach a bacterial concentration of 10^8 CFU/mL, and again diluted 100 times for the inhibition test. Then, 50 µL of bacterial suspension at 1 × 10^6 CFU/mL was incubated with the same volume of different concentrations of peptide solution [serial twofold dilutions in Mueller–Hinton Broth (Hopebio)]. […] All experiments were performed with three independent replicates.

E. faecium 21 = test system: E. faecium 21
Method: as §1, §2

E.coli 110 = test system: E.coli 110
Method: as §1, §2

E.coli 208 = test system: E.coli 208
Method: as §1, §2

K. pneumoniae 7713 = test system: K. pneumoniae 7713
Method: as §1, §2

P. aeruginosa 112 = test system: P. aeruginosa 112
Method: as §1, §2

P. aeruginosa 116 = test system: P. aeruginosa 116
Method: as §1, §2

P. aeruginosa 119 = test system: P. aeruginosa 119
Method: as §1, §2

S. aureus 103 = test system: S. aureus 103
Method: as §1, §2

S. aureus 129 = test system: S. aureus 129
Method: as §1, §2

S. aureus ATCC33592 = test system: S. aureus ATCC33592
Method: as §1, §2

S. aureus CICC25138 = test system: S. aureus CICC25138
Method: as §1, §2

Row | Compound | MIC (μg/mL) E. faecium 1042 (E. faecium 1042) [µg/mL] | MIC (μg/mL) E. faecium 21 (E. faecium 21) [µg/mL] | MIC (μg/mL) E.coli 110 (E.coli 110) [µg/mL] | MIC (μg/mL) E.coli 208 (E.coli 208) [µg/mL] | MIC (μg/mL) K. pneumoniae 7713 (K. pneumoniae 7713) [µg/mL] | MIC (μg/mL) P. aeruginosa 112 (P. aeruginosa 112) [µg/mL] | MIC (μg/mL) P. aeruginosa 116 (P. aeruginosa 116) [µg/mL] | MIC (μg/mL) P. aeruginosa 119 (P. aeruginosa 119) [µg/mL] | MIC (μg/mL) S. aureus 103 (S. aureus 103) [µg/mL] | MIC (μg/mL) S. aureus 129 (S. aureus 129) [µg/mL] | MIC (μg/mL) S. aureus ATCC33592 (S. aureus ATCC33592) [µg/mL] | MIC (μg/mL) S. aureus CICC25138 (S. aureus CICC25138) [µg/mL]
1 | CC[C@H](C)[C@H](NC(=O)[C@H](CCCCN)NC(=O)[C@H](Cc1c[nH]c2ccccc12)NC(=O)[C@@H](N)CCCCN)C(=O)N[C@@H](CCCCN)C(=O)N[C@@H](Cc1c[nH]c2ccccc12)C(=O)N1CCC[C@H]1C(=O)N[C@@H](CO)C(=O)N[C@@H](CC(N)=O)C(=O)N[C@@H](Cc1c[nH]c2ccccc12)C(=O)N[C@@H](Cc1ccccc1)C(=O)N[C@H](C(=O)N[C@@H](CCCCN)C(=O)N[C@@H](CC(C)C)C(N)=O)[C@@H](C)O [QLX-3DV-3] (H-KWKIKWPSNWFTKL-NH2) | 8 (≈ 4.3 µM) | 8 (≈ 4.3 µM) | 16 (≈ 8.6 µM) | 8 (≈ 4.3 µM) | 16 (≈ 8.6 µM) | 32 (≈ 17.2 µM) | 16 (≈ 8.6 µM) | 32 (≈ 17.2 µM) | 32 (≈ 17.2 µM) | 64 (≈ 34.4 µM) | 32 (≈ 17.2 µM) | 32 (≈ 17.2 µM)
2 | CC[C@H](C)[C@H](NC(=O)[C@H](CCCCN)NC(=O)[C@H](Cc1c[nH]c2ccccc12)NC(=O)[C@@H](N)CCCCN)C(=O)N[C@@H](CCCCN)C(=O)N[C@@H](Cc1c[nH]c2ccccc12)C(=O)N1CCC[C@H]1C(=O)N[C@@H](CO)C(=O)N[C@@H](CCCNC(=N)N)C(=O)N[C@@H](Cc1c[nH]c2ccccc12)C(=O)N[C@@H](Cc1ccccc1)C(=O)N[C@H](C(=O)N[C@@H](CCCCN)C(=O)N[C@@H](CC(C)C)C(N)=O)[C@@H](C)O [QLX-3DV-4] (H-KWKIKWPSRWFTKL-NH2) | 16 (≈ 8.41 µM) | 8 (≈ 4.2 µM) | 32 (≈ 16.8 µM) | 16 (≈ 8.41 µM) | 16 (≈ 8.41 µM) | 32 (≈ 16.8 µM) | 32 (≈ 16.8 µM) | 32 (≈ 16.8 µM) | 16 (≈ 8.41 µM) | 32 (≈ 16.8 µM) | 32 (≈ 16.8 µM) | 16 (≈ 8.41 µM)
3 | CC[C@H](C)[C@H](NC(=O)[C@H](CCCCN)NC(=O)[C@H](Cc1c[nH]c2ccccc12)NC(=O)[C@@H](N)CCCCN)C(=O)N[C@@H](CCCCN)C(=O)N[C@@H](CCCNC(=N)N)C(=O)N1CCC[C@H]1C(=O)N[C@H](C(=O)N[C@@H](CCCCN)C(=O)N[C@@H](Cc1c[nH]c2ccccc12)C(=O)N[C@@H](Cc1ccccc1)C(=O)N[C@H](C(=O)N[C@@H](CCSC)C(=O)N[C@@H](CC(C)C)C(N)=O)[C@@H](C)O)C(C)C [QLX-3DV-5] (H-KWKIKRPVKWFTML-NH2) | 32 (≈ 17.2 µM) | 8 (≈ 4.3 µM) | 8 (≈ 4.3 µM) | 8 (≈ 4.3 µM) | 8 (≈ 4.3 µM) | 16 (≈ 8.6 µM) | 128 (≈ 68.8 µM) | 64 (≈ 34.4 µM) | 32 (≈ 17.2 µM) | 128 (≈ 68.8 µM) | 64 (≈ 34.4 µM) | 64 (≈ 34.4 µM)
4 | CC[C@H](C)[C@H](NC(=O)[C@H](CCCCN)NC(=O)[C@H](Cc1c[nH]c2ccccc12)NC(=O)[C@@H](N)CCCCN)C(=O)N[C@@H](CCCCN)C(=O)N[C@@H](CCC(N)=O)C(=O)N[C@@H](Cc1c[nH]c2ccccc12)C(=O)N[C@H](C(=O)N[C@@H](CCCNC(=N)N)C(=O)N[C@@H](Cc1c[nH]c2ccccc12)C(=O)N[C@@H](Cc1ccccc1)C(=O)N[C@@H](CCCNC(=N)N)C(=O)N[C@@H](CCCCN)C(=O)N[C@@H](CC(C)C)C(N)=O)C(C)C [QLX-3DV-6] (H-KWKIKQWVRWFRKL-NH2) | 8 (≈ 4 µM) | 8 (≈ 4 µM) | 8 (≈ 4 µM) | 4 (≈ 2 µM) | 16 (≈ 7.99 µM) | 32 (≈ 16 µM) | 16 (≈ 7.99 µM) | 128 (≈ 64 µM) | 16 (≈ 7.99 µM) | 16 (≈ 7.99 µM) | 16 (≈ 7.99 µM) | 16 (≈ 7.99 µM)
5 | CC[C@H](C)[C@H](NC(=O)[C@H](CCCCN)NC(=O)[C@H](CCCNC(=N)N)NC(=O)[C@@H](N)CCCCN)C(=O)N[C@@H](CCCCN)C(=O)N[C@@H](Cc1c[nH]c2ccccc12)C(=O)N[C@@H](CCCCN)C(=O)N[C@H](C(=O)N[C@@H](CCCNC(=N)N)C(=O)N[C@@H](Cc1c[nH]c2ccccc12)C(=O)N[C@@H](Cc1ccccc1)C(=O)N[C@H](C(=O)N[C@@H](Cc1ccc(O)cc1)C(=O)N[C@@H](CC(C)C)C(N)=O)[C@@H](C)O)C(C)C [QLX-3DV-7] (H-KRKIKWKVRWFTYL-NH2) | 8 (≈ 4.1 µM) | 8 (≈ 4.1 µM) | 16 (≈ 8.2 µM) | 32 (≈ 16.4 µM) | 16 (≈ 8.2 µM) | 32 (≈ 16.4 µM) | 8 (≈ 4.1 µM) | 64 (≈ 32.8 µM) | 16 (≈ 8.2 µM) | 16 (≈ 8.2 µM) | 16 (≈ 8.2 µM) | 16 (≈ 8.2 µM)
6 | CC[C@H](C)[C@H](NC(=O)[C@H](CCCCN)NC(=O)[C@H](CCCNC(=N)N)NC(=O)[C@@H](N)CCCCN)C(=O)N[C@@H](CCCCN)C(=O)N[C@@H](Cc1c[nH]c2ccccc12)C(=O)N[C@@H](Cc1c[nH]c2ccccc12)C(=O)N[C@H](C(=O)N[C@@H](CCCNC(=N)N)C(=O)N[C@@H](Cc1c[nH]c2ccccc12)C(=O)N[C@H](C(=O)N[C@H](C(=O)N[C@@H](CCCCN)C(=O)N[C@@H](CC(C)C)C(N)=O)[C@@H](C)O)[C@@H](C)CC)C(C)C [QLX-3DV-8] (H-KRKIKWWVRWITKL-NH2) | 8 (≈ 4.12 µM) | 4 (≈ 2.06 µM) |  |  | 8 (≈ 4.12 µM) | 16 (≈ 8.25 µM) | 8 (≈ 4.12 µM) | 32 (≈ 16.5 µM) | 8 (≈ 4.12 µM) | 8 (≈ 4.12 µM) |  | 16 (≈ 8.25 µM)
7 | CC[C@H](C)[C@H](NC(=O)[C@H](CCCCN)NC(=O)[C@H](Cc1c[nH]c2ccccc12)NC(=O)[C@@H](N)CCCCN)C(=O)N[C@@H](CCCCN)C(=O)N[C@@H](Cc1c[nH]c2ccccc12)C(=O)N[C@@H](CCCNC(=N)N)C(=O)N[C@H](C(=O)N[C@@H](CCCNC(=N)N)C(=O)N[C@@H](Cc1c[nH]c2ccccc12)C(=O)N[C@@H](Cc1ccccc1)C(=O)N[C@@H](CCCCN)C(=O)N[C@@H](CC(C)C)C(=O)N[C@@H](CC(C)C)C(N)=O)C(C)C [QLX-3DV-9] (H-KWKIKWRVRWFKLL-NH2) | 2 (≈ 1.01 µM) | 2 (≈ 1.01 µM) | 8 (≈ 4.03 µM) | 16 (≈ 8.05 µM) | 16 (≈ 8.05 µM) | 16 (≈ 8.05 µM) | 4 (≈ 2.01 µM) | 16 (≈ 8.05 µM) | 8 (≈ 4.03 µM) | 8 (≈ 4.03 µM) | 16 (≈ 8.05 µM) | 8 (≈ 4.03 µM)
